In the oligonucleotide strings, read from the 5' end, every base follows the letter of its sugar. An asterisk marks phosphorothioate; unmarked linkages are phosphodiester. Other units and linkages are bracketed, terminal groups are in braces. A string of capitals states the bases alone. d = 2'-deoxy (DNA); m = 2'-O-methyl; f = 2'-fluoro
Columns and labels:
Format in all cases: cell-based, human
AR-SV(2) = test: AR protein knock-down by Western blot after siRNA transfection in 22RV1 cells: AR-SV(2); details: 5 nM siRNA, 50 h post transfection, compared to controls
Protocol: (§1) In some instances, a set of AR siRNAs were identified that were predicted to be specific in human and non-human primates (NHP) and cross-reactive with NHPs but not rodent AR mRNA. To identify AR siRNAs that regulate both full length AR and clinically relevant AR splice variants, the search for AR siRNAs was focused primarily, but not exclusively, on exons 1, 2 and 3 of the AR gene, which are common to most AR isoforms. The resulting set of 50 AR siRNAs (Tables 1-3) was assessed in two prostate cancer lines that express high levels of either clinically relevant AR splice variants (22RV1, ATCC) or a full length AR T877A LBD mutant (LNCaP, ATCC). The response of LNCaP tumors in xenograft models to AR antagonists is known to correlate well with clinical responses.
(§2) To monitor their ability to downregulate various AR isoforms, each siRNA was formulated at a single final concentration of 5 nM with a commercially-available transfection reagent (Lipofectamine RNAiMAX, Life Technologies) according to the manufacturer's “forward transfection” instructions. At 50 h (22RV1) and 72 h (LNCaP) post transfection, cells were harvested, and lysed in RIPA buffer (Pierce) supplemented with HALT protease inhibitors (Pierce) using standard procedures. The protein concentration was determined using a BCA protein concentration kit (Pierce). To monitor AR levels in these lysates, proteins (30 ug/lane) were separated by PAGE on BOLT 4-12% Bis-Tris PA gels (Life Technologies), transferred to nitrocellulose using an iBlot dry blot system (Thermo Fisher), and probed with specific antibodies against a region of the N-terminal domain of human AR that is common in known clinically relevant splice variants (N20, Santa Cruz Biotech). A second antibody against α-Tubulin was used as control (P16, Santa Cruz Biotech). Levels of these proteins in the respective cell lysates were quantified on an Odyssey imaging system (LICOR) using appropriate secondary antibodies linked to IRDyes (800CW, 680RD).

[1] = tested on: AR FL (full length AR T877A LBD mutant); test: AR protein knock-down by Western blot after siRNA transfection in LNCaP cells: AR FL; details: 5 nM siRNA, 72 h post transfection, compared to controls
Protocol: as §1, §2

AR-SV(3) = test: AR protein knock-down by Western blot after siRNA transfection in 22RV1 cells: AR-SV(3); details: 5 nM siRNA, 50 h post transfection, compared to controls
Protocol: as §1, §2

AR FL(1) = test: AR protein knock-down by Western blot after siRNA transfection in 22RV1 cells: AR FL(1); details: 5 nM siRNA, 50 h post transfection, compared to controls
Protocol: as §1, §2

| Substance | % KD AR Protein 22RV1 AR-SV(2) (AR-SV(2)) [%] | % KD AR Protein LNCaP AR FL [1] [%] | % KD AR Protein 22RV1 AR-SV(3) (AR-SV(3)) [%] | % KD AR Protein 22RV1 AR FL(1) (AR FL(1)) [%] |
| --- | --- | --- | --- | --- |
| XD-01814: AR siRNA with chemical modification, Id # 1784; sense X05323 (SEQ ID NO: 153), antisense X05324 (SEQ ID NO: 154) (sense mCmAfAmUfUmAfCmUfUmAfGmGfGmGfGmCfAmCfUdT*dT; antisense fAfGmUfGmCfCmCfCmCfUmAfAmGfUmAfAmUfUmGdT*dT) | 20 | 94 | −30 | −7 |
| XD-01815: AR siRNA with chemical modification, Id # 1968; sense X05325 (SEQ ID NO: 155), antisense X05326 (SEQ ID NO: 156) (sense mGmCfCmCfCmAfUmUfGmGfCmCfGmAfAmUfGmCfAdT*dT; antisense fUfGmCfAmUfUmCfGmGfCmCfAmAfUmGfGmGfGmCdT*dT) | 5 | 91 | −15 | −10 |
| XD-01818: AR siRNA with chemical modification, Id # 2045; sense X05331 (SEQ ID NO: 161), antisense X05332 (SEQ ID NO: 162) (sense mCmCfCmUfUmUfCmAfAmGfGmGfAmGfGmUfUmAfCdT*dT; antisense fGfUmAfAmCfCmUfCmCfCmUfUmGfAmAfAmGfGmGdT*dT) | −48 | 93 | 25 | −6 |
| XD-01819: AR siRNA with chemical modification, Id # 2185; sense X05333 (SEQ ID NO: 163), antisense X05334 (SEQ ID NO: 164) (sense mCmUfGmCfGmUfAmCfCmAfGmAfGmUfCmGfCmGfAdT*dT; antisense fUfCmGfCmGfAmCfUmCfUmGfGmUfAmCfGmCfAmGdT*dT) | 47 | 92 | 45 | 15 |
| XD-01822: AR siRNA with chemical modification, Id # 2263; sense X05339 (SEQ ID NO: 169), antisense X05340 (SEQ ID NO: 170) (sense mCmCfCmAfCmGfCmUfCmGfCmAfUmCfAmAfGmCfUdT*dT; antisense fAfGmCfUmUfGmAfUmGfCmGfAmGfCmGfUmGfGmGdT*dT) | 33 | 88 | 41 | 34 |
| XD-01823: AR siRNA with chemical modification, Id # 2739; sense X05341 (SEQ ID NO: 171), antisense X05342 (SEQ ID NO: 172) (sense mAmCfUmGfCmCfAmGfGmGfAmCfCmAfUmGfUmUfUdT*dT; antisense fAfAmAfCmAfUmGfGmUfCmCfCmUfGmGfCmAfGmUdT*dT) | 0 | 79 | −19 | −5 |
| XD-01824: AR siRNA with chemical modification, Id # 2741; sense X05343 (SEQ ID NO: 173), antisense X05344 (SEQ ID NO: 174) (sense mUmGfCmCfAmGfGmGfAmCfCmAfUmGfUmUfUmUfGdT*dT; antisense fCfAmAfAmAfCmAfUmGfGmUfCmCfCmUfGmGfCmAdT*dT) | −32 | 45 | −44 | 3 |
| XD-01830: AR siRNA with chemical modification, Id # 2824; sense X05355 (SEQ ID NO: 185), antisense X05356 (SEQ ID NO: 186) (sense mGmUfCmAfCmUfAmUfGmGfAmGfCmUfCmUfCmAfCdT*dT; antisense fGfUmGfAmGfAmGfCmUfCmCfAmUfAmGfUmGfAmCdT*dT) | 72 | 90 | 76 | 75 |
| XD-01831: AR siRNA with chemical modification, Id # 2847; sense X05357 (SEQ ID NO: 187), antisense X05358 (SEQ ID NO: 188) (sense mGmGfAmAfGmCfUmGfCmAfAmGfGmUfCmUfUmCfUdT*dT; antisense fAfGmAfAmGfAmCfCmUfUmGfCmAfGmCfUmUfCmCdT*dT) | 54 | 87 | 59 | 57 |
| XD-01832: AR siRNA with chemical modification, Id # 2920; sense X05359 (SEQ ID NO: 189), antisense X05360 (SEQ ID NO: 190) (sense mGmCfAmCfUmAfUmUfGmAfUmAfAmAfUmUfCmCfGdT*dT; antisense fCfGmGfAmAfUmUfUmAfUmCfAmAfUmAfGmUfGmCdT*dT) | 93 | 92 | 73 | 93 |
| XD-01833: AR siRNA with chemical modification, Id # 2922; sense X05361 (SEQ ID NO: 191), antisense X05362 (SEQ ID NO: 192) (sense mAmCfUmAfUmUfGmAfUmAfAmAfUmUfCmCfGmAfAdT*dT; antisense fUfUmCfGmGfAmAfUmUfUmAfUmCfAmAfUmAfGmUdT*dT) | 91 | 91 | 77 | 94 |
| XD-01834: AR siRNA with chemical modification, Id # 2923; sense X05363 (SEQ ID NO: 193), antisense X05364 (SEQ ID NO: 194) (sense mCmUfAmUfUmGfAmUfAmAfAmUfUmCfCmGfAmAfGdT*dT; antisense fCfUmUfCmGfGmAfAmUfUmUfAmUfCmAfAmUfAmGdT*dT) | 91 | 91 | 79 | 90 |
| XD-01835: AR siRNA with chemical modification, Id # 2924; sense X05365 (SEQ ID NO: 195), antisense X05366 (SEQ ID NO: 196) (sense mUmAfUmUfGmAfUmAfAmAfUmUfCmCfGmAfAmGfGdT*dT; antisense fCfCmUfUmCfGmGfAmAfUmUfUmAfUmCfAmAfUmAdT*dT) | 85 | 92 | 83 | 89 |
| XD-01836: AR siRNA with chemical modification, Id # 2925; sense X05367 (SEQ ID NO: 197), antisense X05368 (SEQ ID NO: 198) (sense mAmUfUmGfAmUfAmAfAmUfUmCfCmGfAmAfGmGfAdT*dT; antisense fUfCmCfUmUfCmGfGmAfAmUfUmUfAmUfCmAfAmUdT*dT) | 83 | 91 | 73 | 87 |
| XD-01837: AR siRNA with chemical modification, Id # 2927; sense X05369 (SEQ ID NO: 199), antisense X05370 (SEQ ID NO: 200) (sense mUmGfAmUfAmAfAmUfUmCfCmGfAmAfGmGfAmAfAdT*dT; antisense fUfUmUfCmCfUmUfCmGfGmAfAmUfUmUfAmUfCmAdT*dT) | 94 | 91 | 86 | 87 |
